Laboratory results: ChEMBL document CHEMBL1817544, “Carbonic anhydrase inhibitors. Synthesis, molecular structures, and inhibition of the human cytosolic isozymes I and II and transmembrane isozymes IX, XII (cancer-associated) and XIV with novel 3-pyridinesulfonamide derivatives” (Eur J Med Chem, 2011)

Assays:
Carbonic anhydrase 9 = Carbonic anhydrase 9 (Homo sapiens, UniProt Q16790)
Carbonic anhydrase 1 = Carbonic anhydrase 1 (Homo sapiens, UniProt P00915)
Carbonic anhydrase 1, sequence (P00915 whole entry): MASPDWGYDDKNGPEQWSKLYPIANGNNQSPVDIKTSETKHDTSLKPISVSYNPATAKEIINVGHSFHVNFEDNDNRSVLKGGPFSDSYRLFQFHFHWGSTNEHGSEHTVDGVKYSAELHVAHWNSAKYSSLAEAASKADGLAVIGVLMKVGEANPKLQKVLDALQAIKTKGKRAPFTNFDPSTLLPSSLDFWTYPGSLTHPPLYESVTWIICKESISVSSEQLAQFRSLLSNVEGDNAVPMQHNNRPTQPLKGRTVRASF

| Ki (Carbonic anhydrase 9) [nM] | Ki (Carbonic anhydrase 1) [nM] | SMILES |
| --- | --- | --- |
| 13.5 |  | COC1=C(S(N)(=O)=O)C2NS(=O)(=O)c3cnccc3N2C=C1 (centres undefined) |
| 7.6 |  | NS(=O)(=O)c1cnccc1-[n+]1ccccc1 |
| 7.4 |  | Cc1cccc[n+]1-c1ccncc1S(N)(=O)=O |
| 10.1 |  | Cc1cc[n+](-c2ccncc2S(N)(=O)=O)cc1 |
| 9 |  | CN(C)c1cc[n+](-c2ccncc2S(N)(=O)=O)cc1 |
| 8.7 |  | COC1=CC=CC2N1c1ccncc1S(=O)(=O)N2c1ccncc1S(N)(=O)=O (centres undefined) |
| 10.2 |  | NS(=O)(=O)c1cnccc1-n1ccccc1=O |
| 9 | 251000 | NS(=O)(=O)c1cnccc1Oc1ccncc1S(N)(=O)=O |
